Read-outs that look alike come from different tables or passages of the source.
Tests used:
A/PR/8/34 (A/H1N1) = assay type: cell-based, influenza A virus
A/M2 wt = A/M2 wt (Influenza A virus, UniProt P0DOF5); assay type: cell-based
MDCK cells = settings: for cytotoxicity MCC: minimum cytotoxic concentration, minimal alterations in cell morphology after 72 h, MDCK; for concentration at which visibly toxic: MDCK cells
A/HK/7/87 (A/H3N2) = test: microbe, parasite or virus in culture; assay type: cell-based; settings: Influenza A virus, H3N2, MDCK, 72 h, read-out: antiviral EC50 values against A/HK/7/87 (range)
A/HK/7/87 = assay type: cell-based, influenza A virus; settings: for inhibition of plaque formation: at 0.5–2 μM, 72 h
[1] = read-out: antiviral activity A/PR/8/34 EC50 (MTS)
[2] = read-out: antiviral activity A/PR/8/34 EC50 (CPE)

A/M2 wt, sequence (P0DOF5 whole entry, looked up): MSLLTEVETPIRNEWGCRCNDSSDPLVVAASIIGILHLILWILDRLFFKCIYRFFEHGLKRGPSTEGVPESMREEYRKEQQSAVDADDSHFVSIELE

| SMILES | EC50 (A/PR/8/34 (A/H1N1); [1]) | inhibition of wt channel (A/M2 wt) | cytotoxicity MCC (MDCK cells) | EC50 (A/HK/7/87 (A/H3N2)) | EC50 (A/PR/8/34 (A/H1N1); [2]) | activity in virus yield and plaque reduction assays (A/HK/7/87) | activity on A/M2 channels (A/M2 wt) | inhibition of plaque formation (A/HK/7/87) | concentration at which visibly toxic (MDCK cells) | reduction in plaque size or number (A/HK/7/87) |
| --- | --- | --- | --- | --- | --- | --- | --- | --- | --- | --- |
| NC12CC3CC(CC(C3)C1)C2 [amantadine, reference compound] | 34 µM |  |  |  |  |  |  |  |  |  |
| C1=CC2C3CNCC3C1C1CC21.Cl (centres unmarked) [compound 4, 4-Azatetracyclo[5.3.2.0^2,6.0^8.10]dodec-11-ene Hydrochloride] | > 100 µM | potent low-micromolar inhibitors | 100 µM | 3 to 8 µM | > 100 µM | confirmed the activity |  |  |  |  |
| Cl.N=C(N)N1CC2C3C=CC(C4CC34)C2C1 (centres unmarked) [compound 5, 4-Amidino-4-azatetracyclo[5.3.2.0^2,6.0^8.10]dodec-11-ene Hydrochloride] | > 100 µM | potent low-micromolar inhibitors | 100 µM |  | > 100 µM |  |  |  |  |  |
| C1CC2C3CNCC3C1C1CC21.Cl (centres unmarked) [compound 6, 4-Azatetracyclo[5.3.2.0^2,6.0^8.10]dodecane Hydrochloride] | > 100 µM | potent low-micromolar inhibitors | 100 µM | 3 to 8 µM | > 100 µM | confirmed the activity |  |  |  |  |
| Cl.N=C(N)N1CC2C3CCC(C4CC34)C2C1 (centres unmarked) [compound 7, 4-Amidino-4-azatetracyclo[5.3.2.0^2,6.0^8.10]dodecane Hydrochloride] | > 100 µM | potent low-micromolar inhibitors | 100 µM |  | > 100 µM |  |  |  |  |  |
| C1=CC2C3CC3C1C1CN(C3CCNCC3)CC21.Cl (centres unmarked) [compound 8, 4-(4-Piperidinyl)-4-azatetracyclo[5.3.2.0^2,6.0^8.10]dodec-11-ene Dihydrochloride] | < 0.8 µM |  | 100 µM |  | ≤ 0.8 µM |  | did not display any activity |  |  |  |
| C1CC(N2CC3C4CCC(C5CC45)C3C2)CCN1.Cl (centres unmarked) [compound 9, 4-(4-Piperidinyl)-4-azatetracyclo[5.3.2.0^2,6.0^8.10]dodecane Dihydrochloride] | > 100 µM |  | 20 µM |  | > 100 µM |  | did not display any activity |  |  |  |
| C1=CC2C1C1C=CC2C2CNCC12.Cl (centres unmarked) [compound 11, 4-Azatetracyclo[5.4.2.0^2,6.0^8.11]trideca-9,12-diene Hydrochloride] | < 0.8 µM | potent low-micromolar inhibitors |  |  |  |  |  | visible inhibition of plaque formation |  |  |
| C1CC2C1C1CCC2C2CNCC12.Cl (centres unmarked) [compound 12, 4-Azatetracyclo[5.4.2.0^2,6.0^8.11]tridecane Hydrochloride] | > 100 µM | potent low-micromolar inhibitors |  |  | > 100 µM |  |  |  | 2000 to 8000 nM | clear |
| Cl.N=C(N)N1CC2C3C=CC(C4C=CC43)C2C1 (centres unmarked) [compound 13, 4-Amidino-4-azatetracyclo[5.4.2.0^2,6.0^8.11]trideca-9,12-diene Hydrochloride] | > 100 µM | potent low-micromolar inhibitors | 20 µM |  | > 100 µM |  |  | visible inhibition of plaque formation |  |  |
| Cl.N=C(N)N1CC2C3CCC(C4CCC43)C2C1 (centres unmarked) [compound 14, 4-Amidino-4-azatetracyclo[5.4.2.0^2,6.0^8.11]tridecane Hydrochloride] | > 100 µM | potent low-micromolar inhibitors | 4 µM |  | > 100 µM |  |  |  | 2000 to 8000 nM | modest |
| CC12CC34CNCC35CC1(C)C(C)(C5)C2(C)C4.Cl (centres unmarked) [compound 18, 7,8,9,10-Tetramethyl-3-azapentacyclo[7.2.1.1^5,8.0^1,5.0^7,10]tridecane Hydrochloride] |  |  | 100 µM |  |  |  |  | visible inhibition of plaque formation |  |  |
| CC12CC34CN(C(=N)N)CC35CC1(C)C(C)(C5)C2(C)C4.Cl (centres unmarked) [compound 19, 3-Amidino-7,8,9,10-tetramethyl-3-azapentacyclo[7.2.1.1^5,8.0^1,5.0^7,10]tridecane Hydrochloride] | > 100 µM |  | ≥4 µM |  | > 100 µM |  |  |  |  |  |

Reference: publication PMC4096222 (Journal of Medicinal Chemistry, 2014)
